Measurements from ChEMBL document CHEMBL5465560, “Selectivity Literature for EUbOPEN Chemogenomic Library” (2024).

Experiments:
[1] = target: Cyclin-dependent kinase 3 (Homo sapiens) (UniProt Q00526); assay: Selectivity interaction (KinomeScan (DiscoverX)) EUB0000666a CDK3; settings: at 10 µM
[2] = target: Mitogen-activated protein kinase kinase kinase kinase 1 (Homo sapiens) (UniProt Q92918); assay: Selectivity interaction (KinomeScan (DiscoverX)) EUB0000666a MAP4K1; settings: at 10 µM
[3] = target: Casein kinase II subunit alpha (Homo sapiens, UniProt P68400); assay: Selectivity interaction (Kinase panel (DSF assay)) EUB0001558a CSNK2A1
[4] = target: T1, Serine/threonine-protein kinase Chk1 (Homo sapiens) (UniProt O14757); settings: at 10 µM
T1 sequence (whole entry): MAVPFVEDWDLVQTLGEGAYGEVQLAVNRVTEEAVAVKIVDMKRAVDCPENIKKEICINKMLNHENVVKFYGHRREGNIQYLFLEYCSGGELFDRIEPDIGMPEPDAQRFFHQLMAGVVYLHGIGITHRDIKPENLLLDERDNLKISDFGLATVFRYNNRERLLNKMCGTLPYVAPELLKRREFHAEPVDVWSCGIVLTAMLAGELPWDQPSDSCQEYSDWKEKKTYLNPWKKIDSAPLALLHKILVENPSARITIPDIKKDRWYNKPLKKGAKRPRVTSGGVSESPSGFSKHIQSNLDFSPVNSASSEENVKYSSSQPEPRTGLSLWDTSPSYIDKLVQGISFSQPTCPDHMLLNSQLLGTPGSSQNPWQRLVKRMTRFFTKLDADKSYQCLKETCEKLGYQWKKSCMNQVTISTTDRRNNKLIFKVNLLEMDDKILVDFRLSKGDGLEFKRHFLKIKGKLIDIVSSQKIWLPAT

[5] = target: Ribosomal protein S6 kinase beta-1 (Homo sapiens, UniProt P23443); assay: Selectivity interaction (ActivX KiNativ screen (kinase selectivity in THP-1 cell lysates)) EUB0000639a RPS6KB1; format: subcellular; settings: lysate, at 0.2 µM
[6] = target: T2, Ephrin type-B receptor 3 (Homo sapiens) (UniProt P54753); assay: Selectivity interaction (Ambit KINOMEscan and KiNATiv profiling in Jurkat cells) EUB0000090b EPHB3; format: cell-based; settings: at 1 µM
T2 sequence (whole entry): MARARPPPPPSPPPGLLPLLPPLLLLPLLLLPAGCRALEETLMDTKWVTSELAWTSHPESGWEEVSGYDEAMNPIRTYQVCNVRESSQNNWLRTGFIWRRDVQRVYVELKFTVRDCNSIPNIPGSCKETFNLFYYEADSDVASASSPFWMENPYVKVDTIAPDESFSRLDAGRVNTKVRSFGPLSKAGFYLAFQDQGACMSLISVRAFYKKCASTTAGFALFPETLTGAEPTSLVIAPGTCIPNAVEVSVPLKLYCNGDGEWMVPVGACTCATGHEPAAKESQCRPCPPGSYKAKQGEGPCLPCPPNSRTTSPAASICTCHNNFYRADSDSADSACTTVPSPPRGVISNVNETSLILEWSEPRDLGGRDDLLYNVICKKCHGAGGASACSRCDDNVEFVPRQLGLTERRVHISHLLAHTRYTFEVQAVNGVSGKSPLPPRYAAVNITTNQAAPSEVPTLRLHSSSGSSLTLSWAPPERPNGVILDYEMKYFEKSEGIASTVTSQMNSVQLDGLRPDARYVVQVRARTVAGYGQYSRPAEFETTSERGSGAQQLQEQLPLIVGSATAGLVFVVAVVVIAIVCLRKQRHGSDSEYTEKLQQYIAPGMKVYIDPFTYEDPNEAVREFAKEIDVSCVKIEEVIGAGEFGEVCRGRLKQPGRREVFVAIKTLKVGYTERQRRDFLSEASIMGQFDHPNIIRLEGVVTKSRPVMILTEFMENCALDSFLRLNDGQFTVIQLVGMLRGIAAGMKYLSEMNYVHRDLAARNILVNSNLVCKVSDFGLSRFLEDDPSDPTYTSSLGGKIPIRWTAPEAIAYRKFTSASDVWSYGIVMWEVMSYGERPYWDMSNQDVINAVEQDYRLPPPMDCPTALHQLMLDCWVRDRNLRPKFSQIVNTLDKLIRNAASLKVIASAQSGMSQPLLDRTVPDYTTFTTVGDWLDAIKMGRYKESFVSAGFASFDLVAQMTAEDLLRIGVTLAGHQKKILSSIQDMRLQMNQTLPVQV

[7] = target: Protein-tyrosine kinase 6 (Homo sapiens, UniProt Q13882); assay: Selectivity interaction (KinomeScan (DiscoverX)) EUB0000618a PTK6; settings: at 10 µM
[8] = target: Dual specificity tyrosine-phosphorylation-regulated kinase 1B (Homo sapiens, UniProt Q9Y463); assay: Selectivity interaction (KinomeScan (DiscoverX)) EUB0000618a DYRK1B; settings: at 10 µM
[9] = target: Protein kinase C gamma type (Homo sapiens) (UniProt P05129); assay: Selectivity interaction (Upstate Kinase Profiler service (Millipore)) EUB0000056c PRKCG; settings: at 1 µM
[10] = target: T3, Sphingosine kinase 2 (Homo sapiens) (UniProt Q9NRA0); assay: Selectivity interaction (Adapta Assay) EUB0001632a SPHK2; settings: at 10 µM
T3 sequence (whole entry): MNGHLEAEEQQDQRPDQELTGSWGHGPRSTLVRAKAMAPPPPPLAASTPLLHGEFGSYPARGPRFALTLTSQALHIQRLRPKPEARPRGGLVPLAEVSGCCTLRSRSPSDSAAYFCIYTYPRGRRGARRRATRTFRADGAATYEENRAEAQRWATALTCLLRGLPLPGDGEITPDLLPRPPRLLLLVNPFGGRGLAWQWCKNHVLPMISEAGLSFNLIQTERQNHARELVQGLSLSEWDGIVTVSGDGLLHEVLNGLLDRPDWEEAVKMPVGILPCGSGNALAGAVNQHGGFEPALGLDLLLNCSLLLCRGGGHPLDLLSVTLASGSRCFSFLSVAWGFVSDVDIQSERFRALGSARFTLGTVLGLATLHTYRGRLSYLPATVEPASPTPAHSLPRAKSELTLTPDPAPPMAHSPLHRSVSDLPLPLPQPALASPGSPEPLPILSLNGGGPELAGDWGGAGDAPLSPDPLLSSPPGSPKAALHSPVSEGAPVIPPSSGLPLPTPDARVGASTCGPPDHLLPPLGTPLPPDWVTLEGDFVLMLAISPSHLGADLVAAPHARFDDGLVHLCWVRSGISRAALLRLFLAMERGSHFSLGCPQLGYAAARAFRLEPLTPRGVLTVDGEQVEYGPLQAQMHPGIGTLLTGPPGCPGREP

[11] = target: Fibroblast growth factor receptor 3 (Homo sapiens, UniProt P22607); assay: Selectivity interaction (ProQinase) EUB0000171b FGFR3; settings: at 1 µM
Chain of Fibroblast growth factor receptor 3 (P22607 23-806 limits assumed): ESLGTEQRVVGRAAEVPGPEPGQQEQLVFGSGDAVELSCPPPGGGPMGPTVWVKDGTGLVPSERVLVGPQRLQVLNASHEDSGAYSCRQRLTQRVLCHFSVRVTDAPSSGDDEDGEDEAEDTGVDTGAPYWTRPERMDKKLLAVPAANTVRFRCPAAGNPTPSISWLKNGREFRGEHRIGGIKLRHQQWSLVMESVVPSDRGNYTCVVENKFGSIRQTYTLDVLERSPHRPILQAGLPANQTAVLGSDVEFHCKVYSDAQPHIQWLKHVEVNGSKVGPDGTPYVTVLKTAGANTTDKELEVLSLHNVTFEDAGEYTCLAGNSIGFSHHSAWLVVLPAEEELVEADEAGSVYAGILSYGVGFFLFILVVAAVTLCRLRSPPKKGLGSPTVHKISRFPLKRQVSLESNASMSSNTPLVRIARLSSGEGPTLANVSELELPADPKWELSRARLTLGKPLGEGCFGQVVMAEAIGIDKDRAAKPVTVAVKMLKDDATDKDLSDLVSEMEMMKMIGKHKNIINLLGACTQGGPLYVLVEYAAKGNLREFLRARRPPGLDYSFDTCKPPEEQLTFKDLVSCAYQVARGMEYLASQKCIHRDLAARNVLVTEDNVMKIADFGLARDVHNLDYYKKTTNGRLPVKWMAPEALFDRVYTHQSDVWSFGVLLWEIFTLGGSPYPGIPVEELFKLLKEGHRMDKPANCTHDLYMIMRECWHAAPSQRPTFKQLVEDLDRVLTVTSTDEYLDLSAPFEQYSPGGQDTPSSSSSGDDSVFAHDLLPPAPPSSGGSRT

Chain of Protein-tyrosine kinase 6 (Q13882 whole entry, looked up): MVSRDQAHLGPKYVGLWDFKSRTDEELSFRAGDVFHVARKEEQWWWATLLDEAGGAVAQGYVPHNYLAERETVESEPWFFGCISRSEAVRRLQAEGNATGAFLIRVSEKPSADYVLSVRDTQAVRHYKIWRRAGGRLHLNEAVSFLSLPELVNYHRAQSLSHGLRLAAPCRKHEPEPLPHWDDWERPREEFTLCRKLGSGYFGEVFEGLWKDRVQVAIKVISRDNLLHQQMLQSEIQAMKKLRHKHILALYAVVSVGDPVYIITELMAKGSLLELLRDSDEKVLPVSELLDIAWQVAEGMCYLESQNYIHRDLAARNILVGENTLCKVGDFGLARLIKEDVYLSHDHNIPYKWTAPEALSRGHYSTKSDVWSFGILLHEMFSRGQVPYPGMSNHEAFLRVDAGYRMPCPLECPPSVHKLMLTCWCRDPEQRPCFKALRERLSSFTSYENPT
Chain of Mitogen-activated protein kinase kinase kinase kinase 1 (Homo sapiens) (Q92918 whole entry, looked up): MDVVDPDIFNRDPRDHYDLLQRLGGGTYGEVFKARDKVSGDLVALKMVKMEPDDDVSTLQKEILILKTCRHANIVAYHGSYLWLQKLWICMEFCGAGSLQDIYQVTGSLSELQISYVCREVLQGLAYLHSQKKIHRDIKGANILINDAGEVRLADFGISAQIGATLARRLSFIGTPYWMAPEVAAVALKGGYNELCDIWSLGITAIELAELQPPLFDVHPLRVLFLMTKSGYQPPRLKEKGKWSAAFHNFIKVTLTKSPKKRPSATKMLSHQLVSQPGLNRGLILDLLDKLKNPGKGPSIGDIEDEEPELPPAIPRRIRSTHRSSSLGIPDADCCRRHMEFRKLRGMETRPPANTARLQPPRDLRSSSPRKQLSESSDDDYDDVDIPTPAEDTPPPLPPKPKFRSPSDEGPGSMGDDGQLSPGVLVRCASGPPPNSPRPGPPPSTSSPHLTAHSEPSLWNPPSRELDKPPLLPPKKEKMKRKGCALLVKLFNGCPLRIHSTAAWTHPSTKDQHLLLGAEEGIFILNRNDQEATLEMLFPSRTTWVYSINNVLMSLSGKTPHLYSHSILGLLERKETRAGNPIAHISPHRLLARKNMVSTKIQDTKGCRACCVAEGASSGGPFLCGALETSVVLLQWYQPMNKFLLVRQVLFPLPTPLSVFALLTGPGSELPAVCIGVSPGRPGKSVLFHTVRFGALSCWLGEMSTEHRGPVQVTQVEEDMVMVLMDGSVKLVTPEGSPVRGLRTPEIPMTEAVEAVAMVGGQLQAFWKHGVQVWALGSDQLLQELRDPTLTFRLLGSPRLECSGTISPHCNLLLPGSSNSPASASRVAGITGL
Chain of Ribosomal protein S6 kinase beta-1 (P23443 whole entry, looked up): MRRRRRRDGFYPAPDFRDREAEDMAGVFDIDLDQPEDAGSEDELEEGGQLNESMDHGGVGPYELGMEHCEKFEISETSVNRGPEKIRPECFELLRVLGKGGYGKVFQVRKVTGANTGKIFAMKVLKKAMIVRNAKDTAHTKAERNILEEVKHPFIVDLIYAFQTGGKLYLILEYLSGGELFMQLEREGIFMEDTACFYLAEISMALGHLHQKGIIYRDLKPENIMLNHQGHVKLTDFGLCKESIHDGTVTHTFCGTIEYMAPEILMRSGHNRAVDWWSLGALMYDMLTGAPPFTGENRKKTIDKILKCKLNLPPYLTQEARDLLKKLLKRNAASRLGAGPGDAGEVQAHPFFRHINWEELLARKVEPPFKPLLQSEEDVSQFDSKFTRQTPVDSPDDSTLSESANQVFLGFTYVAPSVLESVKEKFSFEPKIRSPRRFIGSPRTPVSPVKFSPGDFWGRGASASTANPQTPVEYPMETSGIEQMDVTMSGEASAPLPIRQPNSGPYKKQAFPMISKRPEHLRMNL
Chain of Dual specificity tyrosine-phosphorylation-regulated kinase 1B (Q9Y463 whole entry, looked up): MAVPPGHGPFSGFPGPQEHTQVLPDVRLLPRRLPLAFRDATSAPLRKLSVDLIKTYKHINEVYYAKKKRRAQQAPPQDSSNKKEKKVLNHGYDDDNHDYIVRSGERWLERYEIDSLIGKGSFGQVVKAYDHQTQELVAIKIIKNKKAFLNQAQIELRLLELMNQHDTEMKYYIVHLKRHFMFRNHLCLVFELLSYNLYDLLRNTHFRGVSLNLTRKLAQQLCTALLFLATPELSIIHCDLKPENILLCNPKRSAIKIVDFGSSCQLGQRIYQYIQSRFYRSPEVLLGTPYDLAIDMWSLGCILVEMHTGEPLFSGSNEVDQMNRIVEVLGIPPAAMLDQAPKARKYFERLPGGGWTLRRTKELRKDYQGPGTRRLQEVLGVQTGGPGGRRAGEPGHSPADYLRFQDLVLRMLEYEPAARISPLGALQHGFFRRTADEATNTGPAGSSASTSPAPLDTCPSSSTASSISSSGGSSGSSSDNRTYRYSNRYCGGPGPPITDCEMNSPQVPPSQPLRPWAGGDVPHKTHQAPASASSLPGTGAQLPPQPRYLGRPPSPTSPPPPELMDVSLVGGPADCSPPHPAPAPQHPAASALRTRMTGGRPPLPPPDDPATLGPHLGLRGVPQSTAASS
Chain of Casein kinase II subunit alpha (P68400 whole entry, looked up): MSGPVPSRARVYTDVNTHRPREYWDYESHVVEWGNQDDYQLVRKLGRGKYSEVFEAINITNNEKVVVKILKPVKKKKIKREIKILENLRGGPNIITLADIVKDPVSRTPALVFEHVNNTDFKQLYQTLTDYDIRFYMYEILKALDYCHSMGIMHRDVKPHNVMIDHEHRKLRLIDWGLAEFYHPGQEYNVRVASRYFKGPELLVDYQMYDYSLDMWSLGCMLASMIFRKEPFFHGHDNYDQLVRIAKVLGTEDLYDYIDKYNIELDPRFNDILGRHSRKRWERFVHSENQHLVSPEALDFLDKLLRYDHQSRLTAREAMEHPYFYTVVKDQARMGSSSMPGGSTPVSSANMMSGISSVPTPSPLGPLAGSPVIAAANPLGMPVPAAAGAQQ
Chain of Cyclin-dependent kinase 3 (Homo sapiens) (Q00526 whole entry, looked up): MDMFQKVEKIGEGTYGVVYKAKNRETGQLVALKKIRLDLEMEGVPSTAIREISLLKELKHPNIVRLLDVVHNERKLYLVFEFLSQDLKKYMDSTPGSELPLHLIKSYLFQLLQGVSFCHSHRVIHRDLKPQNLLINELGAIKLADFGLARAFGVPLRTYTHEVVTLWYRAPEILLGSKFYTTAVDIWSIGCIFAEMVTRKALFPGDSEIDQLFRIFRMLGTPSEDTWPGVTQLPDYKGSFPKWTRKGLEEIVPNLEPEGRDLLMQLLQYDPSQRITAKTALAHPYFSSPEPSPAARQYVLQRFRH

O=C(NOC[C@H](O)CO)c1ccc(F)c(F)c1Nc1ccc(I)cc1F
% of control [1]: 69% | % of control [2]: 77%

CC(C)(O)[C@H](F)CN1Cc2cc(NC(=O)c3cnn4cccnc34)c(N3CCOCC3)cc2C1=O
dTM [3]: 0.3 K

CCN(CC)CCCCNc1ncc2cc(-c3cc(OC)cc(OC)c3)c(NC(=O)NC(C)(C)C)nc2n1
% of control [4]: 100%

CC[C@@H]1[C@H](F)C(=O)N[C@@H]1COc1nccc2cc(C(N)=O)c(OC)cc12 [ZIMLOVISERTIB]
% of inhibition [5]: -6.2%

CN(C)C/C=C/C(=O)Nc1ccc(C(=O)N2CCCC(Nc3ncc(Cl)c(-c4c[nH]c5ccccc45)n3)C2)cc1 (stereo unspecified)
% of control [6]: 93%

O[C@H]1CC[C@H](Nc2ncc3nc(Nc4c(F)cc(F)cc4F)n([C@H]4CCOC4)c3n2)CC1
% of control [7]: 100% | % of control [8]: 100%

Cc1ccc(-c2ccc3c(ccc4sc5c(c43)NC[C@@H](C)NC5=O)n2)cn1
% of inhibition [9]: 17%

Cn1cc(-n2cnc3c(NCc4nc5cc(Cl)c(Cl)cc5[nH]4)nc(N4CCOCC4)nc32)cn1
% of inhibition [10]: 67.7%

C=CC(=O)Nc1cccc(C(=O)Nc2ccc(Nc3cc(-c4[nH]c(SC)nc4C)ccn3)cc2)c1
% of control [11]: 88%
